The values below come from US20250074919A1, “Heteroaryl compounds as inhibitors of irak4, compositions and applications thereof” (Accro Bioscience (HK) Limited, priority 2021, published 2025).

Series [1] is described as follows: Metabolic stability in rat liver microsomes. The following applies: for half-life: SD rat liver microsomes, NADPH, 37° C., read-out: Rat microsome (t1/2). The series is classed as in vitro ADME, SD Rat. The protocol:
(§1) The appropriate concentrations of microsomes working solutions (0.56 mg/mL) were prepared in potassium phosphate buffer. The test compounds were incubated with Human, SD Rat, CD-1 Mouse and Beagle Dog liver microsomes for 10 min at 37° C. with constant shaking. The reaction was initiated by the addition of nicotinamide adenine dinucleotide phosphate (NADPH) cofactor after a 10 min pre-incubation. At 5, 15, 30, 45, and 60 min, the samples were taken and placed into the stop solution (Cold acetonitrile containing 200 ng/mL tolbutamide and 200 ng/mL labetalol as internal standards). All sampling plates were shaken for 10 min, then centrifuged at 4000 rpm for 20 minutes at 4° C. Each supernatant of bioanalysis plate was sealed and shaken for 10 minutes prior to LC-MS analysis.

Series [2] concerns the target T1, IRAK4 (Homo sapiens (Human), UniProt Q9NWZ3). The series can be described thus: Screening the compounds against IRAK4 with ATP (Caliper, FAM-labeled peptide). Particulars: for IC50: read-out: IC50 (nM) (10 μM ATP), IRAK4 kinase, 10 μM ATP. The class given is biochemical. In short, it runs like this:
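Reactions ran at 28° C after adding peptide and ATP, following a 10 min room-temperature enzyme-compound preincubation in HEPES pH 7.5/Brij-35 buffer; EDTA stop.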

Series [3] can be described thus: Metabolic stability in dog liver microsomes. The class given is in vitro ADME, Beagle Dog. Particulars: for half-life: Beagle dog liver microsomes, NADPH, 37° C., read-out: Dog microsome (t1/2). As for the experimental part: as §1
Series [4] can be described thus: Metabolic stability in human liver microsomes. The series is classed as in vitro ADME. Particulars: for half-life: NADPH, 37° C., read-out: Human microsome (t1/2). As for the experimental part: as §1
Series [5] in a line: Metabolic stability in mouse liver microsomes. The class given is in vitro ADME, CD-1 Mouse. The following applies: for half-life: CD-1 mouse liver microsomes, NADPH, 37° C., read-out: Mouse microsome (t1/2). The protocol:
as §1

Series [6] deals with T1, IRAK4. The series can be described thus: Kinase binding ability (KINOMEscan site-directed competition binding assay). As for the experimental part: The Equilibrium dissociation constant reflected the test compound's kinase binding (Kd). The KINOMEscan, a site-directed competition binding assay, was used to measure interactions between test compounds and specific kinases. The kinase-tagged T7 phage strains were derived from the BL21 strain's E. coli host. T7 phage was used to infect E. coli, which was then incubated until lysis occurred. The remaining kinases were produced in HEK-293 cells and tagged with DNA. To create affinity resins for kinase, streptavidin-coated magnetic beads were treated with biotinylated small molecule ligands. The assay consists of three components: a DNA-tagged kinase, an immobilized ligand, and the test compound. An immobilized ligand could compete with the compound binding the kinase active site. The affinity beads were washed with wash buffer and re-suspended in elution buffer following reactions in a polypropylene 384-well plate. qPCR of the kinase-DNA tag was used to assess the test compound's ability to bind with the selected kinase. The assay was carried out in accordance with the manufacturer's instructions (Eurofins DiscoverX Corporation).
Binding constants (Kd) were calculated with a standard dose-response curve using the Hill equation: […]

Counter-ions that a name gives are not always drawn.

T1 sequence (Q9NWZ3 whole entry): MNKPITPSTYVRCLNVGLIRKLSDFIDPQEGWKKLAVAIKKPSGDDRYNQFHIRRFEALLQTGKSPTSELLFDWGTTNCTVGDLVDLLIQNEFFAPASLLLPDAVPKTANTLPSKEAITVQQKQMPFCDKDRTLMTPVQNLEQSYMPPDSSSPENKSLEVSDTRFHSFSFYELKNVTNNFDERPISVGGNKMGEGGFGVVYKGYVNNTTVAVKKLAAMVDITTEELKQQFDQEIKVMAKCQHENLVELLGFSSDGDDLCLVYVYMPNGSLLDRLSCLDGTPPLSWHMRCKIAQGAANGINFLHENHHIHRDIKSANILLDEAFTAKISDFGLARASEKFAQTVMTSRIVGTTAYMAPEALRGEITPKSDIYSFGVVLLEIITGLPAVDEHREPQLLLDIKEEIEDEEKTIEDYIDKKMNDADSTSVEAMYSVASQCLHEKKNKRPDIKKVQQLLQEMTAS

For `Cn1cc(-c2cccc(NC(=O)c3cc4oc(N5CCOCC5)nc4nc3N3CC[C@@H](O)C3)n2)cn1` [Compound A1, (R)-5-(3-hydroxypyrrolidin-1-yl)-N-(6-(1-methyl-1H-pyrazol-4-yl)pyridin-2-yl)-2-morpholinooxazolo[4,5-b]pyridine-6-carboxamide], in series [1], the half-life was above 2.42 h and the “metabolic stability in liver microsomes of rat (in words)” value was “good metabolic stability”. Further, on IRAK4 [2], the IC50 turned out to be 405 nM. Further, in series [3], the half-life was above 2.42 h and the “metabolic stability in liver microsomes of dog (in words)” value was “good metabolic stability”. In series [4], the “metabolic stability in liver microsomes of human (in words)” value is recorded as “good metabolic stability” and the half-life was above 2.42 h. In addition, in series [5], the half-life is above 2.42 h and the “metabolic stability in liver microsomes of mouse (in words)” value is on record as “good metabolic stability”. In addition, on IRAK4 [6], the “binding affinities to IRAK4 (in words)” value is reported as “high binding affinities”. This molecule came in with a Kd at IRAK4 [6] (Kd between IRAK4 and compound) of 29 nM.
Regarding `COC1CCN(c2nc3nc(N4CCOCC4)oc3cc2C(=O)Nc2cccc(-c3cnn(C)c3)n2)CC1` [Compound A24, 5-(4-Methoxypiperidin-1-yl)-N-(6-(1-methyl-1H-pyrazol-4-yl)pyridin-2-yl)-2-morpholinooxazolo[4,5-b]pyridine-6-carboxamide], in series [1], the half-life was determined as 1.27 h and the “metabolic stability in liver microsomes of rat (in words)” value is recorded as “moderate metabolic stability”. Moreover, the “activity, times better than that of the positive control compound CA4948” value at IRAK4 [2] (IRAK4 kinase inhibition relative to CA4948) is listed as “more than 25 times”. Besides, the IC50 on IRAK4 [2] was found to be 4.1 nM. In series [3], the half-life was 1.13 h and the “metabolic stability in liver microsomes of dog (in words)” value is reported as “moderate metabolic stability”. In addition, in series [4], the “metabolic stability in liver microsomes of human (in words)” value is listed as “good metabolism” and the half-life was determined as 1.95 h. In addition, in series [5], the half-life was determined as 1.48 h and the “metabolic stability in liver microsomes of mouse (in words)” value is on record as “good metabolism”.
Take `Cn1cc(-c2cccc(NC(=O)c3cc4oc(N5CCOCC5)nc4nc3N3C4CCC3CC(O)C4)n2)cn1` (centres unmarked) [Compound A28, 5-(3-Hydroxy-8-azabicyclo[3.2.1]octan-8-yl)-N-(6-(1-methyl-1H-pyrazol-4-yl)pyridin-2-yl)-2-morpholinooxazolo[4,5-b]pyridine-6-carboxamide]: the IC50 at IRAK4 [2] is 80 nM.
On the same count and under the same terms, as for `CC1CN(c2nc3nc(N4CCOCC4)oc3cc2C(=O)Nc2cccc(-c3cnn(C)c3)n2)CCN1C` (centres unmarked) [Compound A30, 5-(3,4-Dimethylpiperazin-1-yl)-N-(6-(1-methyl-1H-pyrazol-4-yl)pyridin-2-yl)-2-morpholinooxazolo[4,5-b]pyridine-6-carboxamide Hydrochloride], the figure is 125 nM.
